Results as given in US5223526A, “Pyrazole carboxanilide fungicides and use” (Monsanto Company, priority 1992, dated 1993).

Columns and labels:
[1] = target: T1, succinate dehydrogenase (Botrytis cinerea, UniProt A0A384J5E4+A0A384J8V8+A0A384JHJ5); experiment: Enzyme inhibition: succinate dehydrogenase activity in Botrytis cinerea mitochondria (DCPIP reduction); type: biochemical; details: concentration required to inhibit the rate of DCPIP reduction by 50%; Botrytis cinerea isolate Nick mitochondria; read-out: I50 (μM conc.)
T1 construct: succinate-DCPIP reductase assay with KCN
Summary of the method: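 Crude mitochondria from Botrytis cinerea isolate Nick mycelia, prepared by bead-beating and differential centrifugation, started reactions. SDH activity followed as DCPIP reduction at 600 nm in 50 mM K-phosphate pH 7.2 with 1 mM KCN, 45 μM DCPIP, 17 mM succinate, 1% acetone. I50 from semilog inhibition plots, corrected for succinate-free rates.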

[2] = system: Botrytis cinerea; experiment: Eggplant grey mold; type: in vivo; set-up: scale not given here; details: inoculated 24 h later, rated after 3-4 days; for Disease Control Rating at 500 ppm: eggplant sprayed with 500 ppm; for Disease Control Rating at 20 ppm: eggplant sprayed with 20 ppm; for Disease Control Rating at 100 ppm: eggplant sprayed with 100 ppm
Summary of the method: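 Protective test: compound formulations (2:3 acetone:water, 0.5% Tween 20; 500, 100 or 20 ppm) sprayed on 14-18-day-old plants, with spore inoculum (4×10^6 spore/mL) applied a day later. Disease control rated on Botrytis lesions after 3-4 days at 23 °C and 100% humidity.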

[3] = system: Botrytis cinerea; experiment: Vine grey mold (grape berries); type: in vivo; details: average of six berries, 7-10 days; for pest or weed control at 50 ppm: grape berries treated with 50 ppm, read-out: % DISEASE CONTROL 50 ppm; for pest or weed control at 200 ppm: grape berries treated with 200 ppm, read-out: % DISEASE CONTROL 200 ppm
Summary of the method: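 Preventive berry test: compound at 50 or 200 ppm (acetone/water, 0.05% Tween 20) applied one day before inoculation with 10^6 spores/mL Botrytis conidia. After 7-10 days at 20 °C under 12 h light, infected surface area rated; disease control expressed as percent reduction from control mean; repeated-test values averaged.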

[4] = system: Rhizoctonia solani; experiment: Rice sheath blight; type: in vivo; set-up: scale not given here; details: inoculated two days later, rated after 7 days, average of five plants; for Disease Control Rating at 0.5 mg/mL: foliage and soil sprayed with 0.5 mg/mL; for Disease Control Rating at 0.02 mg/mL: foliage and soil sprayed with 0.02 mg/mL; for Disease Control Rating at 0.1 mg/mL: foliage and soil sprayed with 0.1 mg/mL
Summary of the method: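 Rice plants 11–15 days old had foliage and soil sprayed with 0.5, 0.1 or 0.02 mg/mL Compound A in water/acetone/Tween 20, then kept in flooded trays. Two days later, rice-grain Rhizoctonia solani inoculum went to plant bases; disease control scored versus untreated after 7 days at 25 °C, high humidity, averaging five plants.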

T1 sequence (A0A384J5E4 1-300): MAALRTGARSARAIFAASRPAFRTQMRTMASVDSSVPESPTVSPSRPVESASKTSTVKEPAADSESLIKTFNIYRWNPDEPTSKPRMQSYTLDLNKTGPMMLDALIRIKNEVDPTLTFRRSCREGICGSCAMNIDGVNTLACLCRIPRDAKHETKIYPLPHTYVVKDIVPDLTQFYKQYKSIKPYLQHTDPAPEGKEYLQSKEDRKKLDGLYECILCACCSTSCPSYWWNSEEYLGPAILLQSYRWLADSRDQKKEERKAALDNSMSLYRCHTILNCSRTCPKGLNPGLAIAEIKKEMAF
T1 sequence (A0A384J8V8 1-189): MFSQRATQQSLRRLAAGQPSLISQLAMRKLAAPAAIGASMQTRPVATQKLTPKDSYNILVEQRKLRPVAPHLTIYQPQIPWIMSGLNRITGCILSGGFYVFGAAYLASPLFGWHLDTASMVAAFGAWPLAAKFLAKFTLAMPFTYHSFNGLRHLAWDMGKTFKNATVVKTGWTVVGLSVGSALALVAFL
T1 sequence (A0A384JHJ5 1-192): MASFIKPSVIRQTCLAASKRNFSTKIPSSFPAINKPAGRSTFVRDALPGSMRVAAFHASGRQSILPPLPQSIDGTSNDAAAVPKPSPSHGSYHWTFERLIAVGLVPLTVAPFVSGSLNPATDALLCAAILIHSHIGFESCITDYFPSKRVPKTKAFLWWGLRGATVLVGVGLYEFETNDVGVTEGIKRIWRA
T1 sequence (A0A384K456 1-647 partner): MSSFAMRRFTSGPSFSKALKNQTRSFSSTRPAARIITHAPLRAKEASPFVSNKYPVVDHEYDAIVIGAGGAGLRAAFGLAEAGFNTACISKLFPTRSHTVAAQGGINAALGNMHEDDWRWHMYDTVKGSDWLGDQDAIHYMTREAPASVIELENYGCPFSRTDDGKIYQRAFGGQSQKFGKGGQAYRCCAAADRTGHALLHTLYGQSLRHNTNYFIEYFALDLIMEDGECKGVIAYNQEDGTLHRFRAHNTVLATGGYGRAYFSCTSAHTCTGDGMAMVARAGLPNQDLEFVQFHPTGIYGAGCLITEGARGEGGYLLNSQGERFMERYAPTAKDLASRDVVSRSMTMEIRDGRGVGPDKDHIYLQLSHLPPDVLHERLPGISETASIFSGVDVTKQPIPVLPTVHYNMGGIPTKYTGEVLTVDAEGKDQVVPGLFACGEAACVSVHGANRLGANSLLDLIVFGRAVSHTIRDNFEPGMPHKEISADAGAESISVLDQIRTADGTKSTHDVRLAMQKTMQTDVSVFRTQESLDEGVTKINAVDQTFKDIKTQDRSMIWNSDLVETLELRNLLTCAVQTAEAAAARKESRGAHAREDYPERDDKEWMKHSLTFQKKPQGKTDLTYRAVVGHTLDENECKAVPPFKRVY

SMILES | IC50 [1] | Disease Control Rating at 500 ppm [2] | pest or weed control at 50 ppm [3] | pest or weed control at 200 ppm [3] | Disease Control Rating at 0.5 mg/mL [4] | Disease Control Rating at 20 ppm [2] | Disease Control Rating at 100 ppm [2] | Disease Control Rating at 0.02 mg/mL [4] | Disease Control Rating at 0.1 mg/mL [4]
Cn1cc(C(=O)Nc2ccccc2OC2(C)CCCC2)c(C(F)(F)F)n1 [Example 36, 1H-pyrazole-4-carboxamide, 1-methyl-N-[2-(1-methylcyclopentyloxy)phenyl]-3-(trifluoromethyl)-] | 0.021 µM | 0 | 14% | 38% | 0 |  |  |  | 
COc1cccc(NC(=O)c2cn(C)nc2C(F)(F)F)c1C1CCCCCCC1 [Example 37, 1H-pyrazole-4-carboxamide, N-(2-cyclooctyl-3-methoxyphenyl)-1-methyl-3-(trifluoromethyl)-] | 0.0048 µM | 2 | 25% | 54% | 3 | 0 | 0 | 3 | 3
COc1ccc(C2CCCCCCC2)c(NC(=O)c2cn(C)nc2C(F)(F)F)c1 [Example 38, 1H-pyrazole-4-carboxamide, N-(2-cyclooctyl-5-methoxyphenyl)-1-methyl-3-(trifluoromethyl)-] | 0.014 µM | 2 | 0% | 14% | 1 | 0 | 2 | 0 | 0
CSc1nn(C)cc1C(=O)Nc1ccccc1C1CCCCC1 [Example 39, 1H-pyrazole-4-carboxamide, N-(2-cyclohexylphenyl)-1-methyl-3-(methylthio)-] | 0.36 µM | 1 | 50% | 55% | 0 |  |  |  | 
Cn1cc(C(=O)Nc2ccccc2C=C2CCCCC2)c(C(F)(F)F)n1 [Example 40, 1H-pyrazole-4-carboxamide, N-[2-(cyclohexylidenemethyl)phenyl]-1-methyl-3-(trifluoromethyl)-] | 0.079 µM | 1 | 2% | 3% | 0 | 0 | 0 |  | 
Cc1nn(C)cc1C(=O)Nc1ccccc1C1CCCCCCC1 [Example 41, 1H-pyrazole-4-carboxamide, N-(2-cyclooctylphenyl)-1,3-dimethyl-] | 0.021 µM | 3 | 34% | 37% | 3 | 0 | 0 | 1 | 3
Cn1cc(C(=O)Nc2ccccc2OCC2CCC2)c(C(F)F)n1 [Example 42, 1H-pyrazole-4-carboxamide, N-[2-(cyclobutylmethoxy)phenyl]-3-(difluoromethyl)-1-methyl-] | 0.2 µM | 0 | 0% | 25% | 3 |  |  | 2 | 3
Cn1cc(C(=O)Nc2ccccc2OCC2CCC2)c(C(F)(F)F)n1 [Example 43, 1H-pyrazole-4-carboxamide, N-[2-(cyclobutylmethoxy)phenyl]-1-methyl-3-(trifluoromethyl)-] | 0.38 µM | 0 | 3% | 0% | 3 |  |  | 2 | 3
Cn1cc(C(=O)Nc2ccccc2SC2CCCCC2)c(C(F)F)n1 [Example 44, 1H-pyrazole-4-carboxamide, N-[2-(cyclohexylthio)phenyl]-3-(difluoromethyl)-1-methyl-] | 0.052 µM | 1 | 0% | 37% | 0 |  |  |  | 
Cn1cc(C(=O)Nc2ccccc2SC2CCCCC2)c(C(F)(F)F)n1 [Example 45, 1H-pyrazole-4-carboxamide, N-[2-(cyclohexylthio)phenyl]-1-methyl-3-(trifluoromethyl)-] | 0.092 µM | 0 | 7% | 12% | 0 |  |  |  | 
Cn1cc(C(=O)Nc2ccccc2OCC2CCCC2)c(C(F)F)n1 [Example 46, 1H-pyrazole-4-carboxamide, N-[2-(cyclopentylmethoxy)phenyl]-3-(difluoromethyl)-1-methyl-] | 0.096 µM | 0 | 1% | 0% | 3 |  |  | 2 | 3
Cn1cc(C(=O)Nc2ccccc2OCC2CCCC2)c(C(F)(F)F)n1 [Example 47, 1H-pyrazole-4-carboxamide, N-[2-(cyclopentylmethoxy)phenyl]-1-methyl-3-(trifluoromethyl)-] | 0.16 µM | 0 | 3% | 0% | 3 |  |  | 1 | 3
Cn1cc(C(=O)Nc2ccccc2OCCCC2CCCC2)c(C(F)F)n1 [Example 48, 1H-pyrazole-4-carboxamide, N-[2-(3-cyclopentylpropoxy)phenyl]-3-(difluoromethyl)-1-methyl-] | 0.02 µM | 0 | 10% | 0% | 2 |  |  |  | 
Cn1cc(C(=O)Nc2ccccc2OCCCC2CCCC2)c(C(F)(F)F)n1 [Example 49, 1H-pyrazole-4-carboxamide, N-[2-(3-cyclopentylpropoxy)phenyl]-1-methyl-3-(trifluoromethyl)-] | 0.047 µM | 0 | 4% | 0% | 0 |  |  |  | 
Cn1cc(C(=O)Nc2ccccc2C2CCCCC2)c(Cl)n1 [Example 50, 1H-pyrazole-4-carboxamide, 3-chloro-N-(2-cyclohexylphenyl)-1-methyl-] | 0.098 µM | 0 | 8% | 22% | 2 |  |  | 0 | 0
Cn1cc(C(=O)Nc2ccccc2C2CCCCCC2)c(Cl)n1 [Example 51, 1H-pyrazole-4-carboxamide, 3-chloro-N-(2-cycloheptylphenyl)-1-methyl-] | 0.023 µM | 0 | 16% | 27% | 2 |  |  | 0 | 1
